Values of other authors in patent publication US20260295054A1, “GLUCAGON-LIKE PEPTIDE-1 RECEPTOR AGONIST VARIANTS AND METHODS THEREOF” (Neuraly, Inc., priority 2023, published 2026).
Read-outs that look alike come from different tables or passages of the source.

Legend:
type 2 diabetic subjects = conditions: for HbA1c reduction from baseline: week 16
[1] = humans

albiglutide
HbA1c reduction from baseline (type 2 diabetic subjects; 30 mg weekly): 0.87% | HbA1c reduction from baseline (type 2 diabetic subjects; 50 mg biweekly): 0.79% | HbA1c reduction from baseline (type 2 diabetic subjects; 100 mg monthly): 0.87% | albiglutide concentrations between monthly doses (type 2 diabetic subjects; monthly dosing): fall essentially to zero between monthly doses | fasting blood glucose control (type 2 diabetic subjects; monthly dosing): substantial loss in fasting blood glucose control | nausea and vomiting on dosing days (type 2 diabetic subjects; monthly vs weekly dosing): significantly greater incidence of nausea and vomiting | serum half-life [1]: ~ 5 days
